Series [1] concerns the target T1, progesterone receptor (Oryctolagus cuniculus, UniProt P06186).
T1 construct: On the fifth day the uterus was excised, weighed and homogenized; from tissue
T1 sequence (P06186 1-930): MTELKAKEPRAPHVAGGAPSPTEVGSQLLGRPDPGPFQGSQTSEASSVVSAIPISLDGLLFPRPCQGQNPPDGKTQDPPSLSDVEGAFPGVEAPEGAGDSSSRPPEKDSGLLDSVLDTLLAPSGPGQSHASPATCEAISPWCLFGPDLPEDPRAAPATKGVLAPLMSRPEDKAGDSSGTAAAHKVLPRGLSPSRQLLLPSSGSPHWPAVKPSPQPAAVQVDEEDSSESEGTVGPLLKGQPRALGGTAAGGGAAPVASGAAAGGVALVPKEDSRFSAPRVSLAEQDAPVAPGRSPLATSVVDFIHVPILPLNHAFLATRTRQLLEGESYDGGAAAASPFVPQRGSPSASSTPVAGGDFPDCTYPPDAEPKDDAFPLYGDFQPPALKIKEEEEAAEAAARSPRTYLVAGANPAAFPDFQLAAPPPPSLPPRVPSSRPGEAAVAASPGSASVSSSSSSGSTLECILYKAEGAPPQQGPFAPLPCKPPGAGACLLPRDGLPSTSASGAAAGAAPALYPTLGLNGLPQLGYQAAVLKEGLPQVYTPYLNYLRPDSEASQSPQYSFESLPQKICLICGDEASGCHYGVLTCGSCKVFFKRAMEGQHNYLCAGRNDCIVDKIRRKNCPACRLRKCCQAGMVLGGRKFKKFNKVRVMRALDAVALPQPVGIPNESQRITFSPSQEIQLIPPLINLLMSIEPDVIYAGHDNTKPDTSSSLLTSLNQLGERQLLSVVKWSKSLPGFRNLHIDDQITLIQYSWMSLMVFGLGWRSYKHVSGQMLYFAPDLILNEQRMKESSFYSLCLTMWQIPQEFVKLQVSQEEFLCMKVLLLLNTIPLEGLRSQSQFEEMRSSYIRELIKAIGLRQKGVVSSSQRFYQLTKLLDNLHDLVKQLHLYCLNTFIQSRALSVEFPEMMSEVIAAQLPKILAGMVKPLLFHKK
The series can be described thus: Competition of a series of steroids with [^3 H]R5020 and [^125 I]EVNT (specificity). The following applies: for competing for sites with either ligand (in words): [^3 H]R5020 and [^125 I]EVNT; for activity at 0.003 µM: competitor 3 nM; for activity at 0.1 µM: competitor 100 nM. Type of series: binding, rabbit. How it is done:
To be sure that [^125 I]EVNT and [^3 H]R5020 bound with similar specificities, experiments were performed in which a series of steroids competed with the two differently labelled ligands.
Bo is dpm specifically bound when
B is dpm bound in the presence of […]

Series [2] deals with estrogen receptor. The conditions noted are these: Hansen et al., Jogoda et al.; cited from earlier work.
For series [3] the following is noted: in vivo; cited from earlier work.
Series [4] concerns the target T1, progesterone receptor. The series can be described thus: Saturation and Scatchard analysis of the progesterone receptor with [^125 I]EVNT and [^3 H]R5020. Type of series: binding, rabbit. The following applies: for slope and intercept of the Scatchard plots, i.e. -Ka and the binding capacity (in words): FIG. 3, R5020 vs EVNT.
Series [5] has as its target T1, progesterone receptor. The series can be described thus: Progesterone receptor assay: competition with [^3 H]R5020 binding. The arrangement: species or system rabbit. The method, then: On the fifth day the uterus was excised, weighed and homogenized at 0° C. in 1.5 volumes of iced buffer containing: 1 mM dithiothreitol, 0.15 mM Na2 EDTA, 30% glycerol, 20 mM sodium molybdate, 10 mM Tris/HCl, pH 7.4 (4° C.). Homogenization was accomplished with three 10 second bursts of Polytron homogenizer. The homogenate was centrifuged at 3,000×g for 10 min. and the resulting supernatant was centrifuged at 100,000×g for 1 hour. The final supertant (cytosol) was diluted with homogenization buffer to afford 20-40% binding of a trace of [^3 H]R5020 (90 Ci/mMol), 10,000 dpm, and 50 μl of the appropriate radioinert compound. Non-specific binding was evaluated in tubes containing 2 μM R5020. After incubating at 4° C. overnight, free and bound steroids were separated by the addition of 100 μl of a stirred suspension of charcoal (5 mg/ml) in 10 mM Tris-HCl, pH 7.4 (4° C.), 0.15 mM Na2 EDTA. After mixing and standing on ice for 10 min., the tubes were centrifuged at 1500×g for 10 mins. and the "bound" radioactivity, in a 0.15 ml aliquot of the supernatant, was measured in a liquid scintillation counter.
In FIG. 1, Bo is the specifically bound [^3 H]R5020 alone and b is the specifically bound [^3 H]R5020 in the presence of the designated concentration of competitor. […] In Table 1 below, the values in parenthesis are the number of complete experiments which were conducted; the binding constants are means±SEM.

Series [6] is described as follows: Storage stability by thin layer chromatography. Format: physicochemical. The following applies: 4° C., 10% ethanol in benzene. How it is done:
The radioactive product, [^125 I]EVNT, was stored at 4° C. in the alcoholic benzene solution.

[7] abbreviates: read-out: B/Bo × 10^2, radioligand [^3 H]R5020 (0.67 nM).
Where [8] appears, read: read-out: B/Bo × 10^2, radioligand [^125 I]EVNT (0.18 nM).
The mark [9] stands for this setting: radioligand [^3 H]R5020 (0.67 nM), read-out: B/Bo × 10^2.
The mark [10] stands for this setting: radioligand [^125 I]EVNT (0.18 nM), read-out: B/Bo × 10^2.
Setting [11] is: estrogen stimulated rabbit uterine cytosol, five experiments.

Where two headings read alike, the source gives them in different places.

`C[C@]12CCC(=O)C[C@@H]1CC[C@@H]1[C@@H]2CC[C@]2(C)[C@@H](O)CC[C@@H]12` [5α-DHT, 5α-dihydrotestosterone]: the “competing for sites with either ligand (in words)” value (“competing for sites” for short) in series [1] is “ineffective in competing for sites with either ligand”. Moreover, in series [1] (setting [7]), the activity at 0.003 µM is 101% and the activity at 0.1 µM turned out to be 95%. Besides, in series [1] (setting [8]), the activity at 0.003 µM was 100% and the activity at 0.1 µM was 91%.
For `C[C@]12CC[C@@H]3c4ccc(O)cc4CC[C@H]3[C@@H]1CC[C@@]2(O)/C=C/I` [E-17α-[2-iodovinyl]analogs of estradiol], the “binding to the estrogen receptor (in words)” value in series [2] is on record as “bind to the estrogen receptor”. Further, the “concentration in estrogen target tissues (in words)” value in series [3] is reported as “concentrate in estrogen target tissues”.
For `CCC(=O)[C@@]1(C)CC[C@H]2[C@@H]3CCC4=CC(=O)CCC4=C3CC[C@@]21C` [R5020, 17α,21-dimethyl-19-nor-4,9-pregnadiene-3,20-dione], the “slope and intercept of the Scatchard plots, i.e. -Ka and the binding capacity (in words)” value in series [4] is given as “almost the same”. Besides, the “competing for sites” value in series [1] is reported as “substantial competition”. Also, in series [1] (setting [9]), the activity at 0.003 µM was found to be 34% and the activity at 0.1 µM stood at 0%. For the same compound, in series [1] (setting [10]), the activity at 0.003 µM is 74% and the activity at 0.1 µM came to 0%. This compound gave a Kd in series [5] (R5020, footnote *Kd, rabbit uterine cytosol, mean±SEM (5 experiments)) of 1.05 ± 0.19 nM.
In the case of `C[C@]12CC[C@H]3[C@@H](CCC4=CC(=O)CC[C@@H]43)[C@@H]1CC[C@@]2(O)/C=C\I` [ZVNT, Z-17α-(2-iodovinyl)-4-estrene-17β-ol-3-one], the affinity in series [5] corresponds to a Ki of 1.81 nM. The figures for the “binding to the progesterone receptor (in words)” value in series [5] (listed as Z 17α-(2-iodovinyl) analog of 19-nortestosterone) and in series [5] (listed as Z isomer) were “bind the progesterone receptor with high affinity” and “somewhat greater affinity for the progesterone receptor”, respectively.
On to `C[C@]12CC[C@H]3[C@@H](CCC4=CC(=O)CC[C@@]43C)[C@@H]1CC[C@@H]2O` [Testosterone], for which, in series [1], the “competing for sites” value was “ineffective in competing for sites with either ligand”. Moreover, in series [1] (setting [7]), the activity at 0.003 µM stood at 100% and the activity at 0.1 µM was 105%. Further, in series [1] (setting [8]), the activity at 0.003 µM is 101% and the activity at 0.1 µM amounted to 98%.
For the compound `C[C@]12CC[C@H]3[C@@H](CCC4=CC(=O)CC[C@@H]43)[C@@H]1C[C@@H](I)[C@@H]2O` [INT, 16α-Iodo-4-estrene-17β-ol-3-one], in series [5], the affinity corresponds to a Ki of 39.8 nM and the “binding to the progesterone receptor (in words)” value is recorded as “bind the progesterone receptor with high affinity”.
Consider `CCC(=O)[C@@]1(C)CC[C@H]2[C@@H]3CCC4=CC(=O)CCC4=C3CC[C@@]21C` [[^3 H]R5020, [^3 H]17α,21-dimethyl-19-nor-4,9-pregnadiene-3,20-dione], for which, in series [4] (setting [11]), the binding capacity amounted to 666 ± 198 pM. The Kd in series [4] (estrogen stimulated rabbit uterine cytosol, five experiments, ± SEM, read-out: Association constant Ka (converted)) was 0.8 nM.
Regarding `C[C@@H]1C[C@H]2[C@@H]3CCC4=CC(=O)C=C[C@]4(C)[C@@]3(F)[C@@H](O)C[C@]2(C)[C@@]1(O)C(=O)CO` [Dexamethasone], in series [1], the “competing for sites” value is “ineffective in competing for sites with either ligand”. The activity at 0.003 µM is 103% in series [1] (setting [9]) and 96% in series [1] (setting [10]). Moreover, the activity at 0.1 µM is 101% in series [1] (setting [9]) and 100% in series [1] (setting [10]).
For the compound `C[C@]12CCC(=O)C=C1CC[C@@H]1[C@@H]2[C@@H](O)C[C@@]2(C)[C@H]1CC[C@]2(O)C(=O)CO` [Cortisol], in series [1], the “competing for sites” value is reported as “ineffective in competing for sites with either ligand”. For the same compound, the activity at 0.003 µM in series [1] (setting [9]) was found to be 98%; in series [1] (setting [10]) it was 100%. Further, the results for the activity at 0.1 µM in series [1] (setting [9]) and in series [1] (setting [10]) were 106% and 102%, respectively.
The compound `C[C@]12CC[C@H]3[C@@H](CCC4=CC(=O)CC[C@@H]43)[C@@H]1CC[C@@]2(O)/C=C/[125I]` [[^125 I]EVNT] had a Kd in series [4] of 1.05 nM. The binding capacity in series [4] (setting [11]) amounted to 921 pM. Also, the “stable for a period of at least” value in series [6] is given as 2-3 months.
`CC(=O)[C@H]1CC[C@H]2[C@@H]3CCC4=CC(=O)CC[C@]4(C)[C@H]3CC[C@]12C` [Progesterone]: the “competing for sites” value in series [1] is on record as “substantial competition”. Also, the activity at 0.003 µM is 94% in series [1] (setting [9]) and 91% in series [1] (setting [10]). Moreover, the activity at 0.1 µM in series [1] (setting [9]) was 37%; in series [1] (setting [10]), 22%.
In the case of `C[C@]12CC[C@H]3[C@@H](CCC4=CC(=O)CC[C@@H]43)[C@@H]1CC[C@@]2(O)/C=C/I` [EVNT, E-17α-(2-iodovinyl)-4-estrene-17β-ol-3-one], in series [4], the “slope and intercept of the Scatchard plots, i.e. -Ka and the binding capacity (in words)” value was “almost the same”. Also, the “level of non-specific binding (in words)” value in series [4] (FIGS. 2A and 2B) is “satisfactory and almost identical to that seen with R5020”. Besides, the “competing for sites” value in series [1] was “substantial competition”. In series [1] (setting [7]), the activity at 0.003 µM was 42% and the activity at 0.1 µM was 0%. For the same compound, in series [1] (setting [8]), the activity at 0.003 µM is 74% and the activity at 0.1 µM is 0%. Moreover, in series [5], the affinity corresponds to a Ki of 4.26 ± 0.94 nM and the “binding to the progesterone receptor (in words)” value is “bind the progesterone receptor with high affinity”.
